This is an account of results in paper PMC6715681, “A high-throughput screen to identify novel synthetic lethal compounds for the treatment of E-cadherin-deficient cells” (Scientific Reports, 2019).

What all share (assay type): cell-based, human
For test [1], the system named is MCF10A WT and MCF10A CDH1^−/− cells. Nature of the test: Single-point confirmation screen (10 μM, CTB, 384-well), viability differential between isogenic lines. As to conditions: averaged between three biological replicates, Supplementary Table 2. How it is done: In the single-point confirmation screen, compounds that preferentially harm MCF10A CDH1^−/− cells compared to the wild-type cells were now identified. Three biological replicates were performed for each of the isogenic cell lines at a single-point (10 μM) in 384-well plates. All assay plates had acceptable Z’ values above 0.4 and 23 out of 48 plates had values above 0.6. The POC R^2 correlation between the three biological replicates for the two isogenic cell lines were all above 0.8 (data not shown). A cell viability differential of ‘MCF10A WT POC – MCF10A CDH1^−/− POC’ was used to select hits. An arbitrary threshold for the mean differential of >8.5% was chosen in order to maximize the number of hits being screened in the subsequent stages and to reduce false negatives.
To incorporate a measure of the variability between replicates of the screen into the hit selection process, a further requirement was included of a minimum of 2/3 biological replicates having viability differentials >8.5%. This removed a further 52 compounds shown in blue with only one out of three biological replicates crossing the Y = X-8.5 line independent of the mean. In total, 256 compounds were above the hit selection threshold, thereby preferentially killing E-cadherin negative cells. The mean POC differential of the 256 hits was 17.6% +/− 7.1 (+/−SD), with the highest being 48% for SLEC-1 (Synthetic Lethal E-Cadherin compound 1). […] The resulting 256 SL compounds were then assayed in an 11-point screen for EC50 determination.
(§1) MCF10A WT and MCF10A CDH1^−/− cells were seeded into Corning black walled, clear bottom 384-well plates (assay plates) using a multidrop 384 reagent dispenser (Thermo Fisher Scientific) and a total volume of 50 μL per well.
As we have shown MCF10A CDH1^−/− cells have a prolonged lag to log phase growth of around 24 hours, in order to achieve a similar confluence at 72 hours post seeding MCF10A WT and MCF10A CDH1^−/− cell lines were seeded at 600 cells/well and 800 cells/well, respectively. […] At 72 hours post seeding, plates were removed from the incubator and left for 30 minutes at RT to equalise the temperature across all wells of the plates and reduce fluorescence-based edge effects before reading on an EnVision (PerkinElmer) at 550 nm excitation and 590 nm emission to quantify cell viability.
The coRFU values were then used to calculate the normalized readouts of percent of controls (Eq. 3) and the robust Z score (Eqs 4,5), where doxorubicin refers to an EC80 dose and DMSO was 0.2% v/v.3 coPOC=100×(SamplecoRFU−x¯doxorubicincoRFU)/(x¯DMSOcoRFU−x¯doxorubicincoRFU) 4 MAD=median([…]) 5 CorrectedrobustZscore=(SamplecoRFU−platemediancoRFU)/MAD

The test system of a further test is MCF10A CDH1^−/− cells. Nature of the test: 11-point dose-response screen, cell titre blue (CTB) viability. The following applies: for EC50: Homo sapiens, MCF-10A. As to the method:
(§2) The 11-point dose-response screen evaluated a concentration range from 0.02 µM to 20 µM for both isogenic cell lines in duplicate biological replicates (Fig. 4). One limitation to metabolism-based cellular assays is that a change in read out (fluorescence, luminescence or absorbance) may not necessarily be caused by cell death and could instead result from a cessation of proliferation due to senescence or inhibited mitochondrial respiration. For this reason, a direct measurement of cell counts using cellular imaging of nuclei stained with Hoechst 33342 was also included at the 11-point screening stage. For the CTB 11-point screen all plates had acceptable Z’ values above 0.4, with the second biological replicate having 70% above 0.6 (Fig. 4A). The Z’ values for the high-content imaging (HCI) 11-point screen plates were above 0.4 for MCF10A WT, except one plate from biological replicate two with 0.396 (Fig. 4B). However, for MCF10A CDH1^−/− HCI data, only four plates were above a Z’ of 0.4 and the mean Z’ was 0.32 compared to a mean of 0.51 for MCF10A WT. A further quality metric known as the strictly standardized mean difference (SSMD)[40] is a less conservative approach for QC and a cut-off of >3 is generally used. The mean SSMD value was 7.04 for MCF10A WT and 5.27 for MCF10A CDH1^−/− plates and indicates the MCF10A CDH1^−/− HCI data was acceptable[41]. There was a good correlation between the top hits from the HCI and CTB 11-point screening with an overlap of 31 / 40 for the top 40 compounds selected from the eventual hit selection strategies.
as §1
(§3) As we have shown MCF10A CDH1^−/− cells have a prolonged lag to log phase growth of around 24 hours, in order to achieve a similar confluence at 72 hours post seeding MCF10A WT and MCF10A CDH1^−/− cell lines were seeded at 600 cells/well and 800 cells/well, respectively. Following seeding, plates were left for one hour at RT without stacking[46] and then centrifuged at 500 × g (RCF) for one minute. Plates were then transferred to an incubator at 37 °C and 5% CO2. At 24 hours post seeding, the MiniTrak robotic liquid handling system (Perkin Elmer) was used to transfer 352 compounds per 384-well library plate to the first 22 columns of a 384-well assay plate containing cells to achieve a 10 μM final compound concentration for the pilot, primary and single-point confirmation screens. For the 11-point dose-response screen, compounds were added to columns 1–22, but excluding edge rows A and P of the library plate to reduce edge-effects (Supplementary Fig. 2). The controls of DMSO (0.2% v/v), doxorubicin (EC80) and entinostat (EC50) were added into columns 23–24 of each assay plate (Supplementary Table 1). Cell titre blue[47] was made in-house in sterile PBS from 597 μM resazurin, 78 μM methylene blue, 1 mM potassium hexacyanoferrate (III) and 1 mM potassium hexacyanoferrate (II) trihydrate. At 69 hours post seeding, 16.7% v/v CTB was added to plates and they were incubated at 37 °C for 3 hours (Supplementary Fig. 1). At 72 hours post seeding, plates were removed from the incubator and left for 30 minutes at RT to equalise the temperature across all wells of the plates and reduce fluorescence-based edge effects before reading on an EnVision (PerkinElmer) at 550 nm excitation and 590 nm emission to quantify cell viability.
(§4) Supplementary Table 1. Killing control and SL control effective concentrations.
(§5) Doxorubicin EC80 0.3 µM 0.4 µM
(§6) MCF10A WT cells were seeded at 600/well and MCF10A CDH1-/- cells at 800/well in 384-well plates. Drugs
(§7) were added at 24 hours post seeding and CTB was used as an end-point assay. Concentrations were normalized

The test system of another test is MCF10A WT cells. Described as above. The following applies: Homo sapiens, MCF-10A, 11-point screen; for EC50: CTB, read-out: MCF10A WT CTB EC50. How it is done:
as §2, §1, §3, §4, §5, §6, §7

Where two headings read alike, the source gives them in different places. Some results are limits rather than exact numbers.

As for `COc1ccc2nc(C)cc(NCc3ccc(F)cc3)c2c1` [SLEC-11, N-(4-Fluorobenzyl)-6-methoxy-2-methylquinolin-4-amine], in test [1], the “Differential at 1-pt” value is recorded as 17.42. Also, the “Differential at 20 μM” value in the test on MCF10A CDH1^−/− cells (11-point screen, MCF10A WT – MCF10A CDH1−/− POC at 20 μM) was found to be 106.45. For the same molecule, the EC50 is 6.96 µM with MCF10A CDH1^−/− cells (11-point screen (0.02–20 µM), CTB values, averaged between two biological replicates, Supplementary Table 2, read-out: MCF10A CDH1 -/- EC50) and above 20 µM in the test on MCF10A WT cells. The activity at 20 µM in the test with MCF10A WT cells (viability of WT cells at highest concentration 20 μM, read-out: MCF10A WT POC at 20 μM) is 100%.

For `CC(O)CNCc1ccc(OCc2ccc(Cl)cc2Cl)cc1` (stereo not shown) [SLEC-8], the EC50 in the test on MCF10A CDH1^−/− cells (11-point screen, CTB, read-out: MCF10A CDH1^-/- CTB EC50) was 7.66 µM; in the test with MCF10A WT cells, 17.5 µM.
